Tests used:
Experiment in all cases: relative viability (nuclei count vs DMSO), 5 days (fraction); higher = more cells survive
AZD8055 + OSI-027 = compound: COc1ccc(-c2ccc3c(N4CCOC[C@@H]4C)nc(N4CCOC[C@@H]4C)nc3n2)cc1CO [AZD8055] + COc1cccc2cc(-c3nc([C@H]4CC[C@H](C(=O)O)CC4)n4ncnc(N)c34)[nH]c12 [OSI-027] (partner 0.5 µM)
Method in brief: (§1)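 Lung cancer cell lines were seeded in 1536-well plates and dosed by pin tool the next day, with either a single drug or a fixed anchor-drug dose combined with five library-drug doses (not always all listed) spaced in √10 steps. Five days later, one step fixed the cells and stained their nuclei (final 0.05% Triton X-100, 1% formaldehyde, 1 ug/ml Hoechst), and nuclei were counted on 4× images. Relative viability is the nuclei count in treated wells divided by the count in vehicle wells, and each value is the median of duplicate plates.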

AZD8055 + Lapatinib = compound: COc1ccc(-c2ccc3c(N4CCOC[C@@H]4C)nc(N4CCOC[C@@H]4C)nc3n2)cc1CO [AZD8055] + CS(=O)(=O)CCNCc1ccc(-c2ccc3ncnc(Nc4ccc(OCc5cccc(F)c5)c(Cl)c4)c3c2)o1 [Lapatinib] (partner 2 µM)
Method in brief: as §1

AZD8055 + Trametinib = compound: COc1ccc(-c2ccc3c(N4CCOC[C@@H]4C)nc(N4CCOC[C@@H]4C)nc3n2)cc1CO [AZD8055] + CC(=O)Nc1cccc(-n2c(=O)n(C3CC3)c(=O)c3c(Nc4ccc(I)cc4F)n(C)c(=O)c(C)c32)c1 [Trametinib] (partner 0.02 µM)
Method in brief: as §1

AZD8055 + Linsitinib = compound: COc1ccc(-c2ccc3c(N4CCOC[C@@H]4C)nc(N4CCOC[C@@H]4C)nc3n2)cc1CO [AZD8055] + C[C@]1(O)C[C@@H](c2nc(-c3ccc4ccc(-c5ccccc5)nc4c3)c3c(N)nccn32)C1 [Linsitinib] (partner 1 µM)
Method in brief: as §1

Cell Line | relative viability (AZD8055 + OSI-027; first compound 0.01 µM) | relative viability (AZD8055 + OSI-027; first compound 0.03162 µM) | relative viability (AZD8055 + OSI-027; first compound 0.1 µM) | relative viability (AZD8055 + OSI-027; first compound 0.3162 µM) | relative viability (AZD8055 + OSI-027; first compound 1 µM) | relative viability (AZD8055 + Lapatinib; first compound 0.01 µM) | relative viability (AZD8055 + Lapatinib; first compound 0.03162 µM) | relative viability (AZD8055 + Lapatinib; first compound 0.1 µM) | relative viability (AZD8055 + Lapatinib; first compound 0.3162 µM) | relative viability (AZD8055 + Lapatinib; first compound 1 µM) | relative viability (AZD8055 + Trametinib; first compound 0.01 µM) | relative viability (AZD8055 + Trametinib; first compound 0.03162 µM) | relative viability (AZD8055 + Trametinib; first compound 0.1 µM) | relative viability (AZD8055 + Trametinib; first compound 0.3162 µM) | relative viability (AZD8055 + Trametinib; first compound 1 µM) | relative viability (AZD8055 + Linsitinib; first compound 0.01 µM) | relative viability (AZD8055 + Linsitinib; first compound 0.03162 µM) | relative viability (AZD8055 + Linsitinib; first compound 0.1 µM) | relative viability (AZD8055 + Linsitinib; first compound 0.3162 µM) | relative viability (AZD8055 + Linsitinib; first compound 1 µM)
HCC-78 | 0.415 | 0.392 | 0.326 | 0.352 | 0.366 | 0.934 | 0.547 | 0.406 | 0.225 | 0.217 | 0.819 | 0.596 | 0.597 | 0.409 | 0.349 | 0.442 | 0.355 | 0.222 | 0.195 | 0.177
HCC-366 | 1.08 | 1.01 | 0.845 | 0.437 | 0.288 | 1.12 | 0.93 | 0.864 | 0.27 | 0.2 | 0.35 | 0.217 | 0.166 | 0.0931 | 0.0678 | 0.539 | 0.245 | 0.218 | 0.0598 | 0.0927
HCC-827 | 0.798 | 0.746 | 0.809 | 0.604 | 0.641 | 0.212 | 0.201 | 0.193 | 0.141 | 0.21 | 0.499 | 0.445 | 0.364 | 0.264 | 0.258 | 0.97 | 0.971 | 0.932 | 0.794 | 0.469
HOP-62 | 0.902 | 0.795 | 0.87 | 0.585 | 0.453 | 1.14 | 0.908 | 0.962 | 0.369 | 0.316 | 0.423 | 0.338 | 0.27 | 0.195 | 0.194 | 1.09 | 0.789 | 0.869 | 0.362 | 0.266
IA-LM | – | – | – | – | – | 0.802 | 0.319 | 0.216 | 0.132 | 0.112 | – | – | – | – | – | 0.876 | 0.611 | 0.252 | 0.0793 | 0.118
LC-2-ad | 0.937 | 0.864 | 0.706 | 0.618 | 0.523 | 1.1 | 0.987 | 0.924 | 0.683 | 0.456 | 0.989 | 0.917 | 0.828 | 0.907 | 0.715 | 0.852 | 0.803 | 0.56 | 0.414 | 0.397
LCLC-97TM1 | 0.502 | 0.472 | 0.577 | 0.422 | 0.415 | 0.758 | 0.815 | 0.639 | 0.157 | 0.181 | 0.194 | 0.164 | 0.124 | 0.138 | 0.123 | 0.182 | 0.143 | 0.13 | 0.122 | 0.139
LCLC-103H | 0.444 | 0.437 | 0.44 | 0.356 | 0.32 | – | – | – | – | – | 0.628 | 0.636 | 0.469 | 0.456 | 0.425 | 1 | 0.929 | 0.723 | 0.467 | 0.481
LK-2 | 0.22 | 0.242 | 0.209 | 0.166 | 0.186 | 0.801 | 0.55 | 0.47 | 0.198 | 0.17 | 0.68 | 0.575 | 0.509 | 0.238 | 0.199 | 0.334 | 0.28 | 0.249 | 0.164 | 0.238
LOU-NH91 | 0.775 | 0.797 | 0.66 | 0.569 | 0.556 | 0.68 | 0.679 | 0.56 | 0.484 | 0.548 | 0.765 | 0.74 | 0.64 | 0.564 | 0.587 | 0.889 | 0.835 | 0.629 | 0.585 | 0.524
LU99A | 0.297 | 0.311 | 0.322 | 0.264 | 0.254 | 0.824 | 0.458 | 0.329 | 0.218 | 0.228 | 0.403 | 0.337 | 0.308 | 0.203 | 0.191 | 0.316 | 0.306 | 0.196 | 0.203 | 0.184
NCI-H441 | 0.676 | 0.647 | 0.476 | 0.408 | 0.339 | – | – | – | – | – | 0.432 | 0.452 | 0.282 | 0.229 | 0.201 | 0.515 | 0.337 | 0.346 | 0.203 | 0.33
NCI-H522 | 0.698 | 0.757 | 0.803 | 0.67 | 0.632 | – | – | – | – | – | 0.747 | 0.648 | 0.574 | 0.494 | 0.462 | – | – | – | – | –
NCI-H1299 | – | – | – | – | – | 0.974 | 1.07 | 0.98 | 0.758 | 0.439 | – | – | – | – | – | 1.08 | 0.948 | 0.798 | 0.436 | 0.295
NCI-H1563 | 0.776 | 0.731 | 0.681 | 0.629 | 0.599 | 0.881 | 0.836 | 0.756 | 0.644 | 0.751 | – | – | – | – | – | 0.971 | 0.802 | 0.699 | 0.625 | 0.743
NCI-H1648 | 0.27 | 0.235 | 0.289 | 0.234 | 0.296 | – | – | – | – | – | 0.396 | 0.446 | 0.342 | 0.316 | 0.209 | – | – | – | – | –
NCI-H1650 | 0.678 | 0.776 | 0.484 | 0.435 | 0.39 | 0.767 | 0.731 | 0.71 | 0.452 | 0.44 | 0.724 | 0.544 | 0.502 | 0.394 | 0.261 | – | – | – | – | –
NCI-H1703 | – | – | – | – | – | 0.798 | 0.726 | 0.879 | 0.427 | 0.313 | – | – | – | – | – | 0.514 | 0.576 | 0.623 | 0.102 | 0.29
NCI-H2170 | 0.665 | 0.701 | 0.624 | 0.386 | 0.392 | 0.242 | 0.231 | 0.229 | 0.231 | 0.228 | 0.957 | 0.864 | 0.614 | 0.222 | 0.159 | – | – | – | – | –
NCI-H2342 | 0.598 | 0.621 | 0.571 | 0.529 | 0.594 | – | – | – | – | – | 0.894 | 0.731 | 0.598 | 0.552 | 0.525 | – | – | – | – | –

From the supplement of paper PMC10307832
